Source: patent US20160368872A1, “COMPOUNDS AND METHODS FOR TREATING CANCERS” (HEALTH RESEARCH, INC., priority 2013, published 2016)

Tests used:
CWR22R cells [1] = type: cell-based
Procedure: (§1) All compounds were tested for toxicity using 4 cells lines, target cells-CWR22R and non-target cells, Hela, PC3 and MDA-MB-231 (FIGS. 1A-F).
LC50 data of in vitro 72 hours cytotoxicity assay are included in this table for comparison.

[2] = tissue drug concentrations in mice bearing CWR22R tumors; type: in vivo, SCID mice
Procedure: (§2) We tested these compounds in an in vivo efficacy experiment using model of CRPC in SCID mice, CWR22R. Two compounds, PLA1079 and 1125, which were synthesized in the amount of 500 mg were tested in full scale experiment with either 5 IV daily injections or 10 IP daily injections. After 5 IP or IV injections intra-tumor concentration of the compounds were measured in few mice from this experiment.
Two other compounds, PLA1148 and 1098 (PK testing in FIGS. 8 and 9) were tested in a small scale efficacy experiment. Upon PK testing of the compound PLA1148 one mouse was injected twice with 10 min interval. However the concentration of the drug in plasma of this mouse was not twice, but >4 times higher than in mice injected once. […] It was decided to utilize this observation in an attempt to get higher plasma and tumor concentration of both compounds. Therefore in the pilot efficacy experiment in the same model of CWR22R cells mice were treated with 2 IP injections with 10 minute interval. Treatment with PLA1098 was carried out for two days. […] However this is so far the highest concentration found in tumor. […]

[3] = solubility for in vivo administration; type: physicochemical
[4] = aqueous solubility (pH 7.4); type: physicochemical
[5] = plasma concentration after intravenous and intraperitoneal injections (PK); type: in vivo; details: for bioavailability through IP injection: IP versus IV, doses 50-100 mg/kg; for course of plasma concentration: after intravenous and intraperitoneal injections, 50-100 mg/kg
CWR22R cells [6] = experiment: toxicity of PLA1055 to CWR22R cells depending on time of incubation (LC90, Alamar Blue); type: cell-based; details: incubation 4-8 hours; survival detected at 72 hours
Procedure: FIG. 21. Toxicity of PLA1055 to CWR22R cells in vitro depending on time of incubation. PLA1055 was added to CWR22R in full range of concentrations for the periods of time shown on the right. After that drug containing media were changed for drug free and survival of cells was detected at 72 hours after start of treatment using Alamar Blue assay (Promega).
An in vitro experiment was run to detect the concentration of PLA1055 needed to kill all tumor cells in vitro (LC90) during different periods of time (30 minutes-72 hours, FIG. 21)).

CWR22R tumors = experiment: in vivo efficacy, subcutaneous xenografts of CWR22R cells in SCID mice
Procedure: as §2
(§3) Two other compounds, PLA1148 and 1098 (PK testing in FIGS. 8 and 9) were tested in a small scale efficacy experiment. Upon PK testing of the compound PLA1148 one mouse was injected twice with 10 min interval. However the concentration of the drug in plasma of this mouse was not twice, but >4 times higher than in mice injected once. […] It was decided to utilize this observation in an attempt to get higher plasma and tumor concentration of both compounds. Therefore in the pilot efficacy experiment in the same model of CWR22R cells mice were treated with 2 IP injections with 10 minute interval. Treatment with PLA1098 was carried out for two days. […] However this is so far the highest concentration found in tumor.
Pilot efficacy experiments were run for compounds: PLA1163, PLA1148 using the same model of subcutaneous xenografts of CWR22R cells in SCID mice (FIGS. 18 and 19).

androgen receptor = experiment: AR level in cells with inhibited p53 activity; type: cell-based; details: MCF7 cells with functionally inactive p53 (R175H, GSE56)
Text: Also tested was the hypothesis that degradation of androgen receptor in prostate and breast cancer cells may be due to p53 induced accumulation of mdm2, which is also ubiquitin ligase for androgen receptor (FIG. 15). p53 was inactivated in several cell lines using different approaches what led to the blockade of mdm2 accumulation after c52 treatment. However androgen receptor was still degraded in c52 treated cells even in the absence of p53 activation and mdm2 accumulation (FIG. 16).

Caveolin1 = experiment: expression of Caveolin1 in sensitive versus resistant cells; type: cell-based; details: MDA MB 231 and MCF7 cells
Text: FIG. 12. Expression of Caveolin1 in sensitive versus resistant cells. Caveolin1 is expressed in resistant MDA MB 231 cells, but not in sensitive MCF7 cells.

[7] = toxicity observed in mice of the pilot efficacy experiments; type: in vivo
Procedure: as §3
This compound may be also potentially promising.

[8] = metabolic stability in the presence of mouse liver microsomes; type: in vitro ADME
Procedure: 8 compounds were selected based on the solubility and metabolic stability as well as considering chemical diversity to test for time dependence stability in the presence of mouse […] (FIG. 2). […] Two compounds, PLA1190 and 1197, have desirable metabolic stability, 70 and 77% left after 30 minute incubation with mouse liver microsome respectively. Formulations for in vivo administration were developed for 4 compounds, PLA1079, 1125, 1098 and 1148.

[9] = system: presumable target protein in protein lysates from sensitive CWR22r cells; experiment: DARTS (Drug Affinity Responsive Target Stability) assay; details: treated vs untreated
Procedure: FIG. 24. DARTS (Drug Affinity Responsive Target Stability) assay was performed using c52 and PLA1118. According to this assay these compounds are capable of protecting presumable target protein from protease degradation. Protein lysates from sensitive CWR22r cells were incubated with or without the drug and subsequently digested with the indicated concentration of pronase. A. c52 was used (lane T-treated, M-marker) with indicated concentrations of pronase; ability of c52 to protect its target from protease cleavage was judged based on presence of protein band in the treated lane vs the untreated (UT) control.

CWR22R = experiment: inhibition of growth of cell lines (IC50 categories); type: cell-based; details: Homo sapiens, 22Rv1
Procedure: (§4) This example provides a table (below) of the compounds of the present disclosure and their activity towards four different cell lines (i.e., CWR22R, Hela, PC3, and MDA-MB-231). The IC50 for inhibition of growth is divided into 4 categories: A<1 μM, B 1-5 μM, […], D>20 μM.
as §1

Hela = experiment: as above; type: cell-based; details: Homo sapiens
Procedure: as §4, §1

MDA-MB-231 = experiment: as above; type: cell-based; details: Homo sapiens
Procedure: as §4, §1

PC3 = experiment: as above; type: cell-based; details: Homo sapiens, PC-3
Procedure: as §4, §1

[10] = 5 IV daily injections or 10 IP daily injections
[11] = one mouse at 24 hours after injections
[12] = 2 IP injections with 10 minute interval, one day
[13] = 24 hours after last injection, 2 IP injections with 10 minute interval, two days

For O=C1NCCOc2c1ccc1c2c2ccccc2n1CCCF [PLA1163], the CC50 (CWR22R cells [1]) was 200 nM, the “Liver” value ([2]; 40 mg/kg, IP) was 307 nM and the “Tumor concentration” value ([2]; 40 mg/kg, IP) was 4 to 10 nM. The solubility [3] was “poorly soluble”.

For CN1Cc2c(ccc3c2c2ccccc2n3CCC(F)F)C1=O [PLA1194], the “Aqueous Solubility Classification” value [4] was “Moderate” and the “Aqueous Solubility (pH 7.4)” value [4] was 18 μM.

For NC(=O)c1cccc2c1c1c3cc[nH]c(=O)c3ccc1n2CCCF [PLA1196], the “Aqueous Solubility Classification” value [4] was “Moderate” and the “Aqueous Solubility (pH 7.4)” value [4] was 26 μM.

For O=c1c2ccc3c(c2ccn1CCO)c1ccccc1n3CCCF [PLA1192], the “Aqueous Solubility Classification” value [4] was “Moderate” and the “Aqueous Solubility (pH 7.4)” value [4] was 15 μM.

With CC(=O)c1ccc2c(c1)c1c3c(ccc1n2CCCF)C(=O)CC3 [PLA1198] the “Aqueous Solubility Classification” value [4] was “Low” and the “Aqueous Solubility (pH 7.4)” value [4] was 2.5 μM.

In the case of CCCn1c2ccccc2c2c3cc[nH]c(=O)c3ccc21 [PLA1099], the solubility [3] is reported as “poorly soluble”.

With CC(=O)c1ccc2c(c1)c1ccccc1n2CCCF [PLA1055] the CC50 (CWR22R cells [1]) was 40 nM, the “plasma concentration at 8 hours” value ([5]; 8 hours, single IV administration of 50 mg/kg (FIG. 20)) was “below 1 uM” and the “time up to which compound was detected” value ([5]; single IV administration of 50 mg/kg (FIG. 20)) was “up to 24 hours”. It also gave an LC90 (CWR22R cells [6]) of 2500 nM.

In the case of O=c1c2ccc3c(c2ccn1CCN1CCCC1)c1ccccc1n3CCCF [PLA1193], the “Aqueous Solubility Classification” value [4] is reported as “High” and the “Aqueous Solubility (pH 7.4)” value [4] is reported as 140 μM.

For O=C1CCc2c1ccc1c2c2cc(Br)ccc2n1CCCF [PLA1199], the “Aqueous Solubility Classification” value [4] was “Low” and the “Aqueous Solubility (pH 7.4)” value [4] was 2.3 μM.

With N#Cc1cccc2c1c1c3cc[nH]c(=O)c3ccc1n2CCCF [PLA1195] the “Aqueous Solubility Classification” value [4] was “Low” and the “Aqueous Solubility (pH 7.4)” value [4] was 2.7 μM.

For CCCn1c2ccccc2c2cc(-c3nnco3)ccc21 [PLA1079], the CC50 (CWR22R cells [1]) was 120 nM, the “Tumor concentration” value ([2]; 100 mg/kg, IP/IV) was 24 to 48 nM and the “bioavailability through IP injection” value [5] was “very high bioavailability”. For the same compound, the “course of plasma concentration” value [5] was “fast reduction of concentration during the first hour”, the in vivo efficacy (CWR22R tumors; [10]) was “absence of in vivo efficacy” and the AR level (androgen receptor) was “AR is being degraded”. For the same compound, the “levels of Caveolin1 expression” value (Caveolin1) was “did not change”.

In the case of O=C1NCCc2c1ccc1c2c2ncccc2n1CCCF [PLA1148], the “Liver” value ([2]; 50 mg/kg, IP) is reported as 50 nM, the “Tumor concentration” value ([2]; 50 mg/kg, IP) is reported as 0 to 90 nM and the Tumor concentration ([2]; 48 hours after treatment) is reported as 84 nM. The liver concentration ([2]; 48 hours after treatment) was 49 nM, the plasma concentration ([2]; mice euthanized at 48 hours after treatment) was “The same plasma concentration” and the drug in liver [2, 11] was “no drug detected”. For the same compound, the drug in tumor [2, 11] was “no drug detected”, the plasma concentration [2, 11] was 8.5 nM and the “bioavailability through IP injection” value [5] was “very high bioavailability”. For the same compound, the “course of plasma concentration” value [5] was “fast reduction of concentration during the first hour”, the “concentration in plasma of mouse injected twice with 10 min interval versus mice injected once” value ([5]; one mouse injected twice) was over 4 times and the “tumors of mice that died on the 5th day” value (CWR22R tumors; two mice, injected only one day) was “almost undetectable tumors”. The deaths of mice [7, 12] was 2 mice died next day and 3 other during next 5 days and the toxicity after injection [7, 12] was “acute toxicity developed quickly after injection, symptoms suggested acute liver failure”.

In the case of O=c1[nH]ccc2c1ccc1c2c2ccccc2n1CCCF [PLA1121], the solubility [3] is reported as “poorly soluble”.

In the case of O=C1CCc2c1ccc1c2c2c(F)cccc2n1CCCF [PLA1197], the “Aqueous Solubility Classification” value [4] is reported as “Low”, the “Aqueous Solubility (pH 7.4)” value [4] is reported as 4.0 μM and the “left after 30 minute incubation with mouse liver microsome” value [8] is reported as 77%.

In the case of CC(=O)c1ccc2c(c1)c1c(C(N)=O)cccc1n2CCCF [PLA1191], the “Aqueous Solubility Classification” value [4] is reported as “High” and the “Aqueous Solubility (pH 7.4)” value [4] is reported as 130 μM.

With CCCn1c2ccccc2c2c3c(ccc21)C(=O)N(C)C3 [PLA1098] the CC50 (CWR22R cells [1]) was 40 nM, the “Liver” value ([2]; 100 mg/kg, IP) was 0 nM and the “Tumor concentration” value ([2]; 100 mg/kg, IP) was 23 to 25 nM. The Intratumor concentration ([2]; 2 tested tumors at 24 hours after last injection, 2 IP injections with 10 minute interval, two days) was 25 nM, the compound in liver [2, 13] was “no detectable” and the compound in plasma [2, 13] was “no detectable”. For the same compound, the “bioavailability through IP injection” value [5] was “very high bioavailability”, the “course of plasma concentration” value [5] was “fast reduction of concentration during the first hour” and the “tumor volume and tumor weight vs vehicle control” value (CWR22R tumors; 2 IP injections with 10 minute interval for two days, tumors excised 12 days after treatment) was “certain reduction of tumor volume and tumor weigh in the 1098 treated group vs vehicle control, but not statistically significant”. The in vivo efficacy (CWR22R tumors; summary statement) was “evidence of in vivo efficacy”, the “side effects during the treatment” value ([7]; 2 IP injections with 10 minute interval for two days) was “no signs of side effects were noticed” and the signs of toxicity ([7]; summary statement) was “without any signs of toxicity”. The “protection of target protein band from pronase degradation” value [9] was “protected their targets from degradation”.

With O=c1[nH]ccc2c1ccc1c2c2ncccc2n1CCCF [PLA1181] the “Aqueous Solubility Classification” value [4] was “Low”.

For FCCCn1c2ccccc2c2cc(-c3nnco3)ccc21 [PLA1125], the CC50 (CWR22R cells [1]) was 100 nM, the “Tumor concentration” value ([2]; 100 mg/kg, IP/IV) was 7 to 10 nM and the “bioavailability through IP injection” value [5] was “very high bioavailability”. The “course of plasma concentration” value [5] was “fast reduction of concentration during the first hour” and the in vivo efficacy (CWR22R tumors; [10]) was “absence of in vivo efficacy”.

With O=c1[nH]c2ccc3c(c4ccccc4n3CCCF)c2o1 [PLA1190] the “Aqueous Solubility Classification” value [4] was “Low”, the “Aqueous Solubility (pH 7.4)” value [4] was 3.5 μM and the “left after 30 minute incubation with mouse liver microsome” value [8] was 70%.

With CC(=O)c1ccc2c(c1)c1cc(C(C)=O)ccc1n2CCNC(C)C [CBL 137, reference compound] the AR level (androgen receptor) was “AR is being degraded”.

For CCCn1c2ccccc2c2cc(S(C)(=O)=O)ccc21 [PLA1118], the “protection of target protein band from pronase degradation” value [9] was “faintly”.

In the case of CCCn1c2ccccc2c2c3c(ccc21)C(=O)NCC3 [Compound 2-1, 7-Propyl-2,3-dihydro-1H,7H-pyrido[3,4-c]carbazol-4-one], the IC50 (CWR22R) is reported as under 1000 nM, the IC50 (Hela) is reported as over 20000 nM and the IC50 (MDA-MB-231) is reported as over 20000 nM. It also gave an IC50 (PC3) of over 20000 nM.

With CCCn1c2ccccc2c2c3c(ccc21)C(=O)CCC3 [Compound 1-4] the IC50 (CWR22R) was under 1000 nM, the IC50 (Hela) was over 20000 nM and the IC50 (MDA-MB-231) was over 20000 nM. For the same compound, the IC50 (PC3) was over 20000 nM.
